Assays:
[1] = Cytotoxicity, neutral red uptake assay, MRC-5; assay type: cell-based; conditions: human, MRC-5 lung fibroblasts, confluent monolayer, confluent MRC-5, 24 h, read-out: IC50 ± SD, cytotoxicity MRC-5
Description: (§1) Human lung fibroblasts MRC-5 (ATCC CCL-171) were grown in minimum essential Eagle medium (MEM) with Earles’s salts and 2 mM L-glutamine (Sigma-Aldrich Co.). Human epithelial gastric cells AGS (ATCC CRL-1739) were grown in Ham F-12 medium containing 1 mM L-glutamine. Both media were supplemented with 1.5 g/L sodium bicarbonate (Sigma-Aldrich Co.), 10% heat-inactivated fetal bovine serum (FBS), 100 IU/mL penicillin and 100 µg/mL streptomycin.Both cell lines were grown as monolayers in a humidified incubator with 5% CO2 in air at 37 °C. Culture media, antibiotics and FBS were obtained from Invitrogen Corp.
(§2) Cytotoxicity values were required as a reference to determine the working concentrations in the subsequent experiments. Briefly, confluent cultures of MRC-5 and AGS cells were treated during 24 h with medium containing the compounds at concentrations ranging from 0 up to 1,000 µM. The products were first dissolved in DMSO (1% final concentration) and then in the corresponding culture medium supplemented with 2% FBS. Untreated cells were used as controls. Cell viability was determined at the end of the incubation by means of the neutral red uptake (NRU) assay. Lansoprazole (Sigma-Aldrich Co., min. 98% by TLC) was used as reference compound.

[2] = Cytotoxicity, neutral red uptake assay, AGS; assay type: cell-based; conditions: human, AGS gastric epithelial cells, confluent monolayer, read-out: IC50 ± SD, cytotoxicity AGS
Description: as §1, §2

MRC-5 fibroblasts = assay: MRC-5 fibroblast proliferation assay; assay type: cell-based, human; conditions: MRC-5, 4 days, concentrations 1/64 to 1/2 of IC50
Description: Untreated cells were used as controls. Cell viability was determined at the end of the incubation by means of the NRU assay.

AGS cells [3] = assay: Sodium taurocholate (NaT)-induced damage to AGS cells; assay type: cell-based, human; conditions: 60 min pre-treatment, then 10 mM NaT 30 min
Description: The effect of sodium taurocholate (NaT) on cell viability was determined according to [15]. […] Then, 10 mM NaT was added to all wells for 30 min. Untreated cells were used as controls. […] After incubation, the NRU assay was carried out.

AGS cells [4] = assay: Cellular reduced glutathione (GSH) content of AGS cells; assay type: cell-based, human; conditions: 4 h; for GSH: post-confluent AGS, control 13.6 ± 0.7
Description: Untreated cells were used as controls. […] After incubation, the GSH content was determined using a colorimetric kit (BioAssays Systems, Hayward, CA, USA). Results are expressed as nanomol of soluble reduced sulfhydryls/10^6 cells.

[5] = system: human erythrocyte membranes; assay: Inhibition of lipoperoxidation in erythrocyte membranes; assay type: biochemical
[6] = system: human erythrocyte membranes; assay: as above; assay type: biochemical; conditions: at 100 µg/mL
Description: The inhibition of lipid peroxidation was determined using human erythrocyte membranes. The compounds were tested at 100 µg/mL.

AGS cells [7] = assay: Prostaglandin E2 (PGE2) content of AGS cells; assay type: cell-based, human; conditions: 1 h; for PGE2: post-confluent AGS, control 52 ± 5
Description: One day after confluence, AGS cells were treated for 1 h with the compounds at 1/2 and 1/4 of the respective IC50 values. A control with medium only was included. Indomethacin (100 μM) was used as standard inhibitor of prostaglandin synthesis (Sigma-Aldrich Co., min. 99% by TLC). After incubation, PGE2 content was determined by means of a specific enzyme immunoassay kit (R & D Systems KGE004B, Minneapolis, MN, USA) and values were calculated according to the manufacturer instructions. Results are expressed as pg/well.

[8] = system: HCl-EtOH-induced gastric lesions; design: method as in PMID 21996716; conditions: mice, orally, single dose of 5 mg/kg; cited from earlier work

SMILES: CC1=C(CC[C@@H](C)CC(=O)O)[C@@]2(C)CCC[C@](C)(C(=O)O)C2CC1 (some centres unmarked) [Compound 5, Δ8(9) Junicedric acid]
- IC50 at 24 h [1]: 834 ± 51 µM
- IC50 at 24 h [2]: 666 ± 35 µM
- Percentual proliferative increase compared to untreated cells (MRC-5 fibroblasts): 3.6%
- reduction in cell viability, NaT-induced damage (AGS cells [3]; 83 µM): 19%
- reduction in cell viability, NaT-induced damage (AGS cells [3]; 333 µM): 35%
- Effect in the GSH assay (AGS cells [4]; AGS, 1/4 and 1/8 of IC50): devoid of activity
- GSH (AGS cells [4]; 83 µM): 13.6 ± 0.5 nmol/10^6 cells
- GSH (AGS cells [4]; 166 µM): 14.1 ± 0.6 nmol/10^6 cells
- IC50, inhibition of the lipoperoxidation [5]: IC50 43.8 ± 2.8 µg/mL

SMILES: C=C1CCC2[C@](C)(CCC[C@]2(C)C(=O)O)[C@H]1CC[C@@H](C)CC(=O)OC1=C(CCC(C)C)C(=O)C2=C(CCCC2)C1=O (some centres unmarked) [Compound 11, Dihydroprenyl-5,6,7,8-tetrahydrolapachoyl junicedrate]
- IC50 at 24 h [1]: 42 ± 2 µM
- IC50 at 24 h [2]: 63 ± 4 µM
- Percentual proliferative increase compared to untreated cells (MRC-5 fibroblasts): 3.6%
- GSH (AGS cells [4]; 8 µM): 13.1 ± 0.6 nmol/10^6 cells
- GSH (AGS cells [4]; 16 µM): 13.2 ± 0.5 nmol/10^6 cells
- % Inhibition of the lipoperoxidation [6]: 44%

SMILES: CC(C)=CCC1=C(OC(=O)C[C@H](C)CC[C@H]2[C@@H](C)CCC3[C@]2(C)CCC[C@]3(C)C(=O)O)C(=O)c2ccccc2C1=O (stereo partly drawn) [Compound 13, Lapachoyl 17β-dihydrojunicedrate]
- IC50 at 24 h [1]: 355 ± 21 µM
- IC50 at 24 h [2]: 351 ± 29 µM
- Percentual proliferative increase compared to untreated cells (MRC-5 fibroblasts): 7.3%
- reduction in cell viability, NaT-induced damage (AGS cells [3]; 45 µM): 38%
- reduction in cell viability, NaT-induced damage (AGS cells [3]; 89 µM): 38%
- GSH (AGS cells [4]; 44 µM): 11.9 ± 0.4 nmol/10^6 cells
- GSH (AGS cells [4]; 88 µM): 11.4 ± 0.6 nmol/10^6 cells
- IC50, inhibition of the lipoperoxidation [5]: IC50 61.1 ± 5.9 µg/mL

SMILES: COC(=O)[C@@]1(C)CCC[C@@]2(C)C1CC[C@H](C)[C@@H]2CC[C@@H](C)CC(=O)OC1=C(CCC(C)C)C(=O)c2ccccc2C1=O (stereo partly drawn) [Compound 16, Dihydroprenyl lapachol 17β-dihydrojunicedrate methyl ester]
- IC50 at 24 h [1]: 596 ± 44 µM
- IC50 at 24 h [2]: 643 ± 39 µM
- reduction in cell viability, NaT-induced damage (AGS cells [3]; 81 µM): 44%
- GSH (AGS cells [4]; 80 µM): 14.9 ± 0.7 nmol/10^6 cells
- GSH (AGS cells [4]; 160 µM): 14.1 ± 0.6 nmol/10^6 cells
- % Inhibition of the lipoperoxidation [6]: 46%

SMILES: COC(=O)[C@@]1(C)CCC[C@@]2(C)C1CC[C@H](C)[C@@H]2CC[C@@H](C)CC(=O)OC1=C(CC=C(C)C)C(=O)C2=C(CCCC2)C1=O (stereo partly drawn) [Compound 18, Dihydroprenyl-5,6,7,8-tetrahydrolapachoyl 17β-dihydrojunicedrate methyl ester]
- IC50 at 24 h [1]: 369 ± 29 µM
- IC50 at 24 h [2]: 884 ± 62 µM
- Percentual proliferative increase compared to untreated cells (MRC-5 fibroblasts): 3.6%
- fold induction at 111 µM (AGS cells [7]; Homo sapiens, AGS, 111 µM, read-out: increase in PGE2 content): 2.4
- fold induction at 221 µM (AGS cells [7]; Homo sapiens, AGS, 221 µM, read-out: increase in PGE2 content): 3
- PGE2 (AGS cells [7]; 111 µM): 123 ± 9 pg/mL
- PGE2 (AGS cells [7]; 221 µM): 156 ± 13 pg/mL
- activation at 111 µM (AGS cells [4]; Homo sapiens, AGS, 111 µM, read-out: increase of GSH content compared to untreated controls): 26%
- activation at 221 µM (AGS cells [4]; Homo sapiens, AGS, 221 µM, read-out: increase of GSH content compared to untreated controls): 26%
- GSH (AGS cells [4]; 111 µM): * 17.1 ± 1.1 nmol/10^6 cells
- GSH (AGS cells [4]; 221 µM): * 17.2 ± 1.0 nmol/10^6 cells
- % Inhibition of the lipoperoxidation [6]: 28%

SMILES: CC(C)=CCC1=C(OC(=O)C[C@H](C)CCC2=C(C)CCC3[C@@](C)(C(=O)O)CCC[C@]23C)C(=O)c2ccccc2C1=O (some centres unmarked) [Compound 19, Lapachoyl Δ8(9) junicedrate]
- IC50 at 24 h [1]: 129 ± 9 µM
- IC50 at 24 h [2]: 148 ± 9 µM
- reduction in cell viability, NaT-induced damage (AGS cells [3]; 19 µM): 15%
- reduction in cell viability, NaT-induced damage (AGS cells [3]; 37 µM): 27%
- reduction in cell viability, NaT-induced damage (AGS cells [3]; 74 µM): 40%
- GSH (AGS cells [4]; 19 µM): 13.1 ± 0.4 nmol/10^6 cells
- GSH (AGS cells [4]; 37 µM): 13.5 ± 0.5 nmol/10^6 cells
- % Inhibition of the lipoperoxidation [6]: 49%

SMILES: CC1=C(CC[C@@H](C)CC(=O)OC2=C(CCC(C)C)C(=O)c3ccccc3C2=O)[C@@]2(C)CCC[C@](C)(C(=O)O)C2CC1 (some centres unmarked) [Compound 21, Dihydroprenyl lapachoyl Δ8(9) junicedrate]
- IC50 at 24 h [1]: 601 ± 26 µM
- IC50 at 24 h [2]: 278 ± 14 µM
- reduction in cell viability, NaT-induced damage (AGS cells [3]; 35 µM): 25%
- reduction in cell viability, NaT-induced damage (AGS cells [3]; 70 µM): 27%
- reduction in cell viability, NaT-induced damage (AGS cells [3]; 139 µM): 30%
- fold induction at 85 µM (AGS cells [7]; Homo sapiens, AGS, 85 µM, read-out: increase in PGE2 content): 3.1
- PGE2 (AGS cells [7]; 85 µM): 162 ± 18 pg/mL
- activation at 70 µM (AGS cells [4]; Homo sapiens, AGS, 70 µM, read-out: increase of GSH content compared to untreated controls): 33%
- GSH (AGS cells [4]; 35 µM): 13.3 ± 0.7 nmol/10^6 cells
- GSH (AGS cells [4]; 70 µM): * 18.1 ± 1.1 nmol/10^6 cells
- gastroprotective effect in vivo [8]: significant activity

SMILES: CC1=C(CC[C@@H](C)CC(=O)OC2=C(CCC(C)C)C(=O)C3=C(CCCC3)C2=O)[C@@]2(C)CCC[C@](C)(C(=O)O)C2CC1 (some centres unmarked) [Compound 23, Dihydroprenyl-5,6,7,8-tetrahydrolapachoyl Δ8(9) junicedrate]
- IC50 at 24 h [1]: 20 ± 2 µM
- IC50 at 24 h [2]: 29 ± 2 µM
- Stimulation of fibroblast proliferation (MRC-5 fibroblasts): inactive
- reduction in cell viability, NaT-induced damage (AGS cells [3]; 7.5 µM): 32%
- reduction in cell viability, NaT-induced damage (AGS cells [3]; 15 µM): 39%
- activation at 7.3 µM (AGS cells [4]; Homo sapiens, AGS, 7.3 µM, read-out: increase of GSH content compared to untreated controls): 26%
- GSH (AGS cells [4]; 3.6 µM): 12.6 ± 0.8 nmol/10^6 cells
- GSH (AGS cells [4]; 7.3 µM): * 17.1 ± 1.3 nmol/10^6 cells
- IC50, inhibition of the lipoperoxidation [5]: IC50 59.5 ± 4.3 µg/mL

SMILES: COC(=O)[C@@]1(C)CCC[C@]2(C)C(CC[C@@H](C)CC(=O)OC3=C(CCC(C)C)C(=O)C4=C(CCCC4)C3=O)=C(C)CCC12 (some centres unmarked) [Compound 24, Dihydroprenyl-5,6,7,8-tetrahydrolapachoyl Δ8(9) junicedrate methyl ester]
- IC50 at 24 h [1]: > 1000 µM
- IC50 at 24 h [2]: > 1000 µM
- Stimulation of fibroblast proliferation (MRC-5 fibroblasts): inactive
- fold induction at 250 µM (AGS cells [7]; Homo sapiens, AGS, 250 µM, read-out: increase in PGE2 content): 2.4
- PGE2 (AGS cells [7]; 250 µM): 123 ± 12 pg/mL
- GSH (AGS cells [4]; 125 µM): * 18.7 ± 1.0 nmol/10^6 cells
- GSH (AGS cells [4]; 250 µM): * 18.0 ± 0.9 nmol/10^6 cells
- % Inhibition of the lipoperoxidation [6]: 27%

From article PMC6270338, “Diterpenylquinone Hybrids: Synthesis and Assessment of Gastroprotective Mechanisms of Action in Human Cells” (Molecules, 2013)
